# Where a SMILES comes first, the peptide text is derived from it. The star is where a group is joined. X1 = C/C(=C\C*)CC/C=C(\C)COCc1ccc(C(=O)c2ccccc2)cc1; X3 = C/C(=C\C*)CC/C=C(\C)COCc1cccc(C(=O)c2ccccc2)c1; Biotin = O=C1N[C@H]2[C@H](CS[C@H]2CCCCC(=O)*)N1; X2 = C/C(=C\C*)COCc1cccc(C(=O)c2ccccc2)c1; X4 = C/C(=C\C*)COCc1ccc(C(=O)c2ccccc2)cc1; PEG4 = NCCOCCOCCOCCOCCC(=O)O
# Key:
# [1] = molecular target: T1, His10myc3N-Ste14p (His-Ste14p) (Saccharomyces cerevisiae, UniProt P32584); test: In vitro methyltransferase vapor diffusion assay, substrate kinetics, His-Ste14p; format: biochemical, S. cerevisiae; conditions: for Vmax: crude yeast membranes expressing His-Ste14p; for Fold lower Km of para- vs meta-substituted benzophenone a-factor analogs: His-Ste14p, vs meta-substituted analogs (7a, 8a)
# T1 sequence (P32584 1-239): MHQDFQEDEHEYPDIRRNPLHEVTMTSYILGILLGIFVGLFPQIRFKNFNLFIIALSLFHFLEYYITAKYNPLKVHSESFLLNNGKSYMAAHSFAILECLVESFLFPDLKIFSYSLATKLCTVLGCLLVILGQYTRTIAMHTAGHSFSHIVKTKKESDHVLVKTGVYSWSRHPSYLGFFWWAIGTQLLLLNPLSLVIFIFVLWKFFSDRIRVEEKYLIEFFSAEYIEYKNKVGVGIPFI
# [2] = molecular target: T2, His10myc3N-hIcmt (His-hIcmt) (Homo sapiens, UniProt O60725); test: Inhibition of His-hIcmt methyltransferase activity; format: biochemical
# T2 sequence (O60725 whole entry): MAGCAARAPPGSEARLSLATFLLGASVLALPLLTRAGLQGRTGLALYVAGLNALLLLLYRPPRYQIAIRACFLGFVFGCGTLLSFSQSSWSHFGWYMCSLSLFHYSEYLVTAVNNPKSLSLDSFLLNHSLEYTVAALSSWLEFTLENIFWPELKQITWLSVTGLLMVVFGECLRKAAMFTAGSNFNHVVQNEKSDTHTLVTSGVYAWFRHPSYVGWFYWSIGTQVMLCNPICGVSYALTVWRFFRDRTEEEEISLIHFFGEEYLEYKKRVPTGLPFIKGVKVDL
# human Icmt (hIcmt) = conditions: cited from earlier work
# yeast Icmt = conditions: cited from earlier work
# [3] = molecular target: T1, His10myc3N-Ste14p (His-Ste14p); conditions: read-out: Km(app); AFC positive control; ± S.D.; cited from earlier work
# [4] = molecular target: T2, His10myc3N-hIcmt (His-hIcmt); conditions: AFC; ± S.D.; cited from earlier work
# His-Icmt = test: Competition of photolabeling by 8b with AFC, His-hIcmt; format: binding, human; conditions: 8b 200 μM, increasing AFC; data not shown
SMILES,Vmax [1] [pmol/min/mg],Inhibition of His-hIcmt (in words) [2],Substrate of human Icmt (in words) (human Icmt (hIcmt)),Substrate of yeast Icmt (in words) (yeast Icmt),also measured
"CC[C@H](C)[C@H](NC(=O)[C@H](Cc1ccc(O)cc1)NC(=O)CCOCCOCCOCCOCCNC(=O)CCCC[C@@H]1SC[C@@H]2NC(=O)N[C@@H]21)C(=O)N[C@H](C(=O)N[C@@H](CCCCN)C(=O)NCC(=O)N[C@H](C(=O)N[C@@H](Cc1ccccc1)C(=O)N[C@@H](Cc1c[nH]c2ccccc12)C(=O)N[C@@H](CC(=O)O)C(=O)N1CCC[C@H]1C(=O)N[C@@H](C)C(=O)N[C@@H](CSC/C=C(\C)COCc1cccc(C(=O)c2ccccc2)c1)C(=O)O)C(C)C)[C@@H](C)CC [Compound 7a, Biotin-Peg4-YIIKGVFWDPAC(C5-meta-Bp)] ({Biotin-PEG4}-YIIKGVFWDPAC(X2)-OH)",473,poor inhibitors of His-hIcmt,–,–,–
"CC[C@H](C)[C@H](NC(=O)[C@H](Cc1ccc(O)cc1)NC(=O)CCOCCOCCOCCOCCNC(=O)CCCC[C@@H]1SC[C@@H]2NC(=O)N[C@@H]21)C(=O)N[C@H](C(=O)N[C@@H](CCCCN)C(=O)NCC(=O)N[C@H](C(=O)N[C@@H](Cc1ccccc1)C(=O)N[C@@H](Cc1c[nH]c2ccccc12)C(=O)N[C@@H](CC(=O)O)C(=O)N1CCC[C@H]1C(=O)N[C@@H](C)C(=O)N[C@@H](CSC/C=C(\C)COCc1ccc(C(=O)c2ccccc2)cc1)C(=O)O)C(C)C)[C@@H](C)CC [Compound 7b, Biotin-Peg4-YIIKGVFWDPAC(C5-para-Bp)] ({Biotin-PEG4}-YIIKGVFWDPAC(X4)-OH)",–,poor inhibitors of His-hIcmt,–,–,Fold lower Km of para- vs meta-substituted benzophenone a-factor analogs [1]: 2 – 3 times lower
"CC(C)=CCCC(C)=CCCC(C)=CCSCCC(=O)O [FTP, farnesyl thiopropionic acid]",–,–,substrates for both human and yeast Icmts,substrates for both human and yeast Icmts,–
"CC(=O)N[C@@H](CSC/C=C(\C)CC/C=C(\C)CC/C=C(\C)CCC=C(C)C)C(=O)O [AGGC, N-acetyl-S-geranylgeranyl-L-cysteine]",–,–,substrates for both human and yeast Icmts,substrates for both human and yeast Icmts,–
"CC[C@H](C)[C@H](NC(=O)[C@H](Cc1ccc(O)cc1)NC(=O)CCOCCOCCOCCOCCNC(=O)CCCC[C@@H]1SC[C@@H]2NC(=O)N[C@@H]21)C(=O)N[C@H](C(=O)N[C@@H](CCCCN)C(=O)NCC(=O)N[C@H](C(=O)N[C@@H](Cc1ccccc1)C(=O)N[C@@H](Cc1c[nH]c2ccccc12)C(=O)N[C@@H](CC(=O)O)C(=O)N1CCC[C@H]1C(=O)N[C@@H](C)C(=O)N[C@@H](CSC/C=C(\C)CC/C=C(\C)COCc1cccc(C(=O)c2ccccc2)c1)C(=O)O)C(C)C)[C@@H](C)CC [Compound 8a, Biotin-Peg 4-YIIKGVFWDPAC(C10-meta-Bp)] ({Biotin-PEG4}-YIIKGVFWDPAC(X3)-OH)",762,relatively potent,–,–,–
"CC(=O)N[C@@H](CSC/C=C(\C)CC/C=C(\C)CCC=C(C)C)C(=O)O [Compound 1, N-acetyl-S-farnesyl-L-cysteine]",869,–,substrates for both human and yeast Icmts,substrates for both human and yeast Icmts,Km [3]: 15.9 ± 0.9 µM; Km [4]: 10.3 ± 0.5 µM
"CC[C@H](C)[C@H](NC(=O)[C@H](Cc1ccc(O)cc1)NC(=O)CCOCCOCCOCCOCCNC(=O)CCCC[C@@H]1SC[C@@H]2NC(=O)N[C@@H]21)C(=O)N[C@H](C(=O)N[C@@H](CCCCN)C(=O)NCC(=O)N[C@H](C(=O)N[C@@H](Cc1ccccc1)C(=O)N[C@@H](Cc1c[nH]c2ccccc12)C(=O)N[C@@H](CC(=O)O)C(=O)N1CCC[C@H]1C(=O)N[C@@H](C)C(=O)N[C@@H](CSC/C=C(\C)CC/C=C(\C)COCc1ccc(C(=O)c2ccccc2)cc1)C(=O)O)C(C)C)[C@@H](C)CC [Compound 8b, Biotin-Peg4-YIIKGVFWDPAC(C10-para-Bp)] ({Biotin-PEG4}-YIIKGVFWDPAC(X1)-OH)",–,relatively potent,–,–,Fold lower Km of para- vs meta-substituted benzophenone a-factor analogs [1]: 2 – 3 times lower; Mode of inhibition (in words) (His-Icmt): competitive inhibitor; Photolabeling by 8b in presence of AFC (in words) (His-Icmt): decreased with increasing AFC concentration
